Test results: US8669254B2, “Pyridine, pyridazine, pyrimidine or pyrazine carboxamides as HDL-cholesterol raising agents” (Hoffman-La Roche Inc., priority 2010, dated 2014)
Like-named read-outs stand apart in the source and are kept apart here.

What was measured:
[1] = biological target: T1, human CB1 receptor (Homo sapiens, UniProt P21554); assay: CB1 receptor affinity ([3H]-CP-55,940 displacement); assay type: binding; conditions: read-out: CB1 receptor affinity [% inhibition @ 10 μM]
T1 construct: expressed in transfected cells; host or cells: human embryonic kidney (HEK) cells, Semliki Forest Virus system, membrane preparation
Method: (§1) The affinity of the compounds of the invention for cannabinoid receptors was determined using membrane preparations of human embryonic kidney (HEK) cells in which the human CB1 receptor is transiently transfected using a Semliki Forest Virus system in conjunction with [3H]-CP-55,940 as radioligand. After incubation of freshly prepared cell membrane preparation with the [^3H]-ligand, with or without addition of compounds of the invention, separation of bound and free ligand was performed by filtration over glass fiber filters. Radioactivity on the filter was measured by scintillation counting.
(§2) The ability of the compounds to displace the radioligand [^3H]-CP-55,940 was measured at a concentration of 10 μM and values provided as [% inhibition @ 10 μM] both for the CB 1 and CB2 receptor assay, The lower % inhibition is, the lower the likelihood of side effects based on CB1 or CB2 receptor inhibition is.

[2] = test system: ABCA1 protein; assay: Detection of upregulation of ABCA1 protein in cells (ApoA-I binding, high content image analysis); assay type: cell-based; conditions: THP-1 macrophage cells; for % increase of ABCA1 at 3 μM: compound at 3 μM, 24 hrs; for EC50: ABCA1 protein detection assay
Method: The ability of compounds of the invention to increase the level of ABCA1 protein is determined in replicate cultures of THP-1 macrophage cells in 96-well microplates. Cells are plated at an initial density of 100,000 cells/well in 100 μl medium and differentiated to adherent macrophages with the addition of PMA (100 nM) for 68 hrs in 10% fetal bovine serum, 3 μl/L of b-mercaptoethanol, RPMI-1640 medium. Then, cells are incubated with RPMI-1640 medium containing 1% FCS, 25 μg/ml acetylated LDL, for 24 hours at 37°. Following incubation with acetylated LDL, cells are washed twice with 50 μl PBS and incubated with 100 μl of RPMI-1640 medium containing the compound of interest solubilized in DMSO for an additional 24 hrs. The final DMSO concentration in presence of cells is maintained at 0.5%. ApoA-I binding assay using High Content Image Analysis is initiated by replacing with fresh medium, RPMI without Phenol Red, 0.2% BSA containing AlexaFluor®647 labeled ApoA-I for 2 h/37° C./5% CO2. Then, cells are fixed with 4% Formaldehyde in PBS (15 min, RT). Following Nuclei are stained with Hoechst solution (3 μM PBS) and Cytoplasm with Cell Mask Blue (2 μg/ml PBS), 15 min, RT. Finally the stained cells are fixed with a second round of formaldehyde treatment. Fixed stained cells are washed and kept in PBS at 4° C. and can be read immediately until one month after preparation.
The Alexa Fluor 647-labeled Apolipoprotein A-I (20 nM) was prepared as follows: Human recombinant Apolipoprotein A-I (ApoA-I) was exchanged to a buffer of 0.02 M NaHCO3 at pH 8.2 on an NAP desalting column (GE Healthcare) and brought to a concentration to 40 μM (1.13 mg/ml) by adjustment with the same buffer. The ApoA-I was fluorescently labeled by incubation with Alexa Fluor carboxylic acid succimidyl ester (Alexa Fluor 647, Invitrogen A-20006) at a 2:1 molar ratio (Alexa to ApoA-I) for 1 h under shaking at RT). The remaining unconjugated label was removed by buffer exchange to 0.02M NaHCO3 at pH 8.2.
Imaging and data collection were performed on an OPERA confocal microplate imaging reader using a 20× water immersion objective and UV360 or 405 laser to identify the cell nuclei and a 635 laser to identify the fluorescent ApoA-I. Eight fields of view are captured per well. Image capture and analysis was performed with the Acapella software. Background fluorescence detected in control wells without ApoA-I was subtracted.
Using XLfit3 program (ID Business Solutions Ltd. UK), the model 205 for Dose Response One Site is used to calculate the EC50 values. […] Particularly, the compounds of the present invention have EC50 values in a range of 0.1 μM to 3 μM.

[3] = biological target: T2, human CB2 receptor (Homo sapiens, UniProt P34972); assay: CB2 receptor affinity ([3H]-CP-55,940 displacement); assay type: binding; conditions: HEK cell membranes, radioligand [3H]-CP-55,940
T2 construct: expressed in transfected cells; host or cells: human embryonic kidney (HEK) cells, Semliki Forest Virus system, membrane preparation
Method: as §1, with “cannabinoid CB2” for “cannabinoid”, “CB2” for “CB1”, “[^3H]-CP-55,940” for “[3H]-CP-55,940”
as §2

[4] = 10 μM, HEK cell membranes, radioligand [3H]-CP-55,940

T1 sequence (P21554 whole entry): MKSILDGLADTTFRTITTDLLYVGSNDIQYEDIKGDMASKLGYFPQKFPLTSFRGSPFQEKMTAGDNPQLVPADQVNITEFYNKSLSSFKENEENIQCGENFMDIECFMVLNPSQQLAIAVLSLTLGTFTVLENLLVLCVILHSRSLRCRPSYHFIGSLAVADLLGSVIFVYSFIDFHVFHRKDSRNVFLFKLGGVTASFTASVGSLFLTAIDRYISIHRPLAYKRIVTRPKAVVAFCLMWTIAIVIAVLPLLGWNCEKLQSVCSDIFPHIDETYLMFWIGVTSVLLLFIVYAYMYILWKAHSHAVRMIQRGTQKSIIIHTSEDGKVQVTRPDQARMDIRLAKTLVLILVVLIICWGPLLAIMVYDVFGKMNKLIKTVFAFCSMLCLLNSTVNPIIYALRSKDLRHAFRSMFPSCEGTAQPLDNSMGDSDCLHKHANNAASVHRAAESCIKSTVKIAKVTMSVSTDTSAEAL
T2 sequence (P34972 whole entry): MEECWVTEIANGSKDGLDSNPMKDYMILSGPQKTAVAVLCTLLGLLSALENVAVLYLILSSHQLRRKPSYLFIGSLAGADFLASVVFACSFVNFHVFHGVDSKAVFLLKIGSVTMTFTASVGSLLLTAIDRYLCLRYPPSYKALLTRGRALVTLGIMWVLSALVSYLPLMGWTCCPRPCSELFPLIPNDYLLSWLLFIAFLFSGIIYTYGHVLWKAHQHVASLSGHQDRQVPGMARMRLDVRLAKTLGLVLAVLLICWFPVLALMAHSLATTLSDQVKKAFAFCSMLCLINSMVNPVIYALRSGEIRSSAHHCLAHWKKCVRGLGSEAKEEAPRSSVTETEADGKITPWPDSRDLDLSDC

| Compound | inhibition at 10 µM [1, 4] [%] | % increase of ABCA1 at 3 μM [2] [% @ 3 μM] | inhibition at 10 µM [3] [%] | inhibition at 10 µM [1] [%] | EC50 [2] [nM] |
| --- | --- | --- | --- | --- | --- |
| CO/N=C(/CNC(=O)c1cnc(OCC(F)(F)F)c(-c2ccc(Cl)c(Cl)c2)c1)C1CC1 [Example 12, N-{2-Cyclopropyl-2-[(E)-methoxyimino]-ethyl}-5-(3,4-dichloro-phenyl)-6-(2,2,2-trifluoro-ethoxy)-nicotinamide] | 26.8 | 88.4 | 47.7 |  |  |
| CO/N=C1\CCCC[C@@H]1NC(=O)c1cnc(OCC2CC2)c(-c2ccc(Cl)cc2)c1 [Example 1, 5-(4-Chloro-phenyl)-6-cyclopropylmethoxy-N-{(S)-2-[(E)-methoxyimino]-cyclohexyl}-nicotinamide] |  | 87.2 | 17.2 | 34 | 700 |
| CO/N=C(/CNC(=O)c1cc(-c2ccc(Cl)cc2)c(O[C@@H](C)C(F)(F)F)nn1)C1CC1 [Example 25, (S,E)-5-(4-Chlorophenyl)-N-(2-cyclopropyl-2-(methoxyimino)ethyl)-6-(1,1,1-trifluoropropan-2-yloxy)pyridazine-3-carboxamide] | 39 | 61 | 29 |  |  |
| COCO/N=C1\CCCC[C@@H]1NC(=O)c1cnc(OCC2CC2)c(-c2ccc(Cl)cc2)c1 [Example 6, 5-(4-Chloro-phenyl)-6-cyclopropylmethoxy-N-{(S)-2-[(E)-methoxymethoxyimino]-cyclohexyl}-nicotinamide] | 36.7 | 71.9 | 19.2 |  |  |
| CO/N=C(/CNC(=O)c1ccc(OCC(F)(F)F)c(-c2ccc(Cl)cc2)n1)C(F)(F)F [Example 21, 6-(4-Chloro-phenyl)-5-(2,2,2-trifluoro-ethoxy)-pyridine-2-carboxylic acid {3,3,3-trifluoro-2-[(Z)-methoxyimino]-propyl}-amide] | 41 | 50 | 31 |  |  |
| CO/N=C1\CCCC[C@@H]1NC(=O)c1ccc(OCC(F)(F)F)c(-c2ccc(Cl)cc2)n1 [Example 10, 6-(4-Chloro-phenyl)-5-(2,2,2-trifluoro-ethoxy)-pyridine-2-carboxylic acid {(S)-2-[(E)-methoxyimino]-cyclohexyl}-amide] | 0.74 | 45.6 | 19.2 |  | 1530 |
| CO/N=C(/CNC(=O)c1ncc(OCC2CC2)c(-c2ccc(Cl)cc2)n1)C1CC1 [Example 20, 4-(4-chloro-phenyl)-5-cyclopropylmethoxy-pyrimidine-2-carboxylic acid {2-cyclopropyl-2-[(E)-methoxyimino]-ethyl}-amide] | 28.8 | 87.03 | 71.7 |  |  |
| CO/N=C1\CCCC[C@@H]1NC(=O)c1cnc(OCC(F)(F)F)c(-c2ccc(Cl)c(Cl)c2)c1 [Example 7, 5-(3,4-Dichloro-phenyl)-N-{(S)-2-[(E)-methoxyimino]-cyclohexyl}-6-(2,2,2-trifluoro-ethoxy)-nicotinamide] |  | 84.6 | 3.56 | 10.5 | 4720 |
| CO/N=C1\CCCC[C@@H]1NC(=O)c1cc(-c2ccc(Cl)cc2)c(OCC2CC2)nn1 [Example 18, 5-(4-Chloro-phenyl)-6-cyclopropylmethoxy-pyridazine-3-carboxylic acid {(S)-2-[(E)-methoxyimino]-cyclohexyl}-amide] | 26.9 | 57.3 | 32.5 |  | 4990 |
| CO/N=C(/CNC(=O)c1cnc(OCC(F)(F)F)c(-c2ccc(Cl)cc2)c1)C1CC1 [Example 14, 5-(4-Chloro-phenyl)-N-{2-cyclopropyl-2-[(E)-methoxyimino]-ethyl}-6-(2,2,2-trifluoro-ethoxy)-nicotinamide] | 48.2 | 157.2 | 20.9 |  |  |
| CO/N=C1\CCCC[C@H]1NC(=O)c1cnc(OCC(F)(F)F)c(-c2ccc(Cl)c(Cl)c2)c1 [Example 8, 5-(3,4-Dichloro-phenyl)-N-{(R)-2-[(E)-methoxyimino]-cyclohexyl}-6-(2,2,2-trifluoro-ethoxy)-nicotinamide] |  | 63 | 13.1 | 35.2 | 810 |
| CO/N=C(\CNC(=O)c1cnc(OCC(F)(F)F)c(-c2ccc(Cl)cc2)c1)C1CC1 [Example 13, 5-(4-Chloro-phenyl)-N-{2-cyclopropyl-2-[(Z)-methoxyimino]-ethyl}-6-(2,2,2-trifluoro-ethoxy)-nicotinamide] | 48.6 | 66.2 | 1.52 |  |  |
| CO/N=C1\CCCC[C@@H]1NC(=O)c1cnc(OCC(F)(F)F)c(-c2ccc(Cl)cc2)c1 [Example 2, 5-(4-Chloro-phenyl)-N-{(S)-2-[(E)-methoxyimino]-cyclohexyl}-6-(2,2,2-trifluoro-ethoxy)-nicotinamide] | 30.8 | 88.3 | 3.53 |  | 1820 |
| CO/N=C1\CCCC[C@@H]1NC(=O)c1cc(-c2ccc(Cl)cc2)c(OCC(F)(F)F)cn1 [Example 9, 4-(4-Chloro-phenyl)-5-(2,2,2-trifluoro-ethoxy)-pyridine-2-carboxylic acid {(S)-2-[(E)-methoxyimino]-cyclohexyl}-amide] | 15.9 | 71.7 | 37.6 |  |  |
| NC(=O)CO/N=C1\CCCC[C@@H]1NC(=O)c1cnc(OCC2CC2)c(-c2ccc(Cl)cc2)c1 [Example 5, N-{(S)-2-[(E)-Carbamoylmethoxyimino]-cyclohexyl}-5-(4-chloro-phenyl)-6-cyclopropylmethoxy-nicotinamide] | 33.1 | 65.2 | 15.1 |  | 2020 |
| CC(C)O/N=C1\CCCC[C@@H]1NC(=O)c1cnc(OCC2CC2)c(-c2ccc(Cl)cc2)c1 [Example 3, 5-(4-Chloro-phenyl)-6-cyclopropylmethoxy-N-{(S)-2-[(E)-isopropoxyimino]-cyclohexyl}-nicotinamide] | 45.7 | 66.4 | 6.86 |  |  |
| O=C(NC/C(=N/O)C1CC1)c1cnc(OCC(F)(F)F)c(-c2ccc(Cl)c(Cl)c2)c1 [Example 11, N-(E)-(2-Cyclopropyl-2-hydroxyimino-ethyl)-5-(3,4-dichloro-phenyl)-6-(2,2,2-trifluoro-ethoxy)-nicotinamide] | 30 | 55.9 | 44.3 |  |  |
| CO/N=C(/CNC(=O)c1cc(-c2ccc(Cl)cc2)c(OCC(F)(F)F)cn1)C1CC1 [Example 32, (E)-4-(4-chlorophenyl)-N-(2-cyclopropyl-2-(methoxyimino)ethyl)-5-(2,2,2-trifluoroethoxy)picolinamide] | 15 | 53 | 29 |  |  |
